The term inhibition denotes the change of the read-out against control, counted positive when it falls.

In assay [1] the target is T1, human B1R (bradykinin receptor 1) (Homo sapiens, UniProt P46663).
T1 construct: expressed in transfected cells; host or cells: CHO K1 cells
T1 sequence (P46663 1-353): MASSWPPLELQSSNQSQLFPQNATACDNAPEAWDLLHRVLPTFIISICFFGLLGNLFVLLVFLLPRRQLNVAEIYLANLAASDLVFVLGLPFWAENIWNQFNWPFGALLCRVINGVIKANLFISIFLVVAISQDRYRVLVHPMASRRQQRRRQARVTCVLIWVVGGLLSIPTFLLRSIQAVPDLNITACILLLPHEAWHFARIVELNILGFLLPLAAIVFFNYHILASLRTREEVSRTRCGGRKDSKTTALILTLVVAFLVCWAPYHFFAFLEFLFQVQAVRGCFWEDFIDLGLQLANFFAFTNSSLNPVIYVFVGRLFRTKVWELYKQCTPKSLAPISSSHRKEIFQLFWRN
Nature of the assay: FLIPR Ca2+ assay (Fluo-4) on CHO K1 cells stably transfected with the human B1R gene (hB1R cells): % inhibition at 10 μM / IC50, agonist Lys-Des-Arg9-bradykinin. The note with it: for inhibition at 10 µM: CHO-K1, human B1R. Format: cell-based. How it is done: The agonistic or antagonistic action of substances can be quantified on the bradykinin receptor 1 (B1R) of the human and rat species with ectopically expressing cell lines (CHO K1 cells) and with the aid of a Ca^2+-sensitive dyestuff (Fluo-4) in a fluorescent imaging plate reader (FLIPR). The figure in % activation is based on the Ca^2+ signal after addition of Lys-Des-Arg^9-bradykinin (0.5 nM) or Des-Arg^9-bradykinin (100 nM). Antagonists lead to a suppression of the Ca^2+ inflow after addition of the agonist. % inhibition compared with the maximum achievable inhibition is stated.
The agonistic or antagonistic action of substances can be determined on the bradykinin receptor 1 (B1R) of the human and rat species with the following assay. In accordance with this assay, the Ca^2+ inflow through the channel is quantified with the aid of a Ca^2+-sensitive dyestuff (type Fluo-4, Molecular Probes Europe BV, Leiden, Holland) in a fluorescent imaging plate reader (FLIPR, Molecular Devices, Sunnyvale, USA).
Chinese hamster ovary cells (CHO K1 cells) transfected stably with the human B1R gene (hB1R cells) or the B1R gene of the rat (rB1R cells) are used. For functional studies, these cells are plated out on black 96-well plates with a clear base (BD Biosciences, Heidelberg, Germany or Greiner, Frickenhausen, Germany) in a density of 20,000-35,000 cells/well. The cells are left overnight at 37° C. and 5% CO2 in culture medium (hB1R cells: Nutrient Mixture Ham's F12, Gibco Invitrogen GmbH, Karlsruhe, Germany or DMEM, Sigma-Aldrich, Taufkirchen, Germany; rB1R cells: D-MEM/F12, Gibco Invitrogen GmbH, Karlsruhe, Germany) with 10 vol. % FBS (foetal bovine serum, Gibco Invitrogen GmbH, Karlsruhe, Germany or PAN Biotech GmbH, Aidenbach, Germany). On the following day, the cells are loaded for 60 min at 37° C. with 2.13 μM Fluo-4 (Molecular Probes Europe BV, Leiden Holland) in HBSS buffer (Hank's buffered saline solution, Gibco Invitrogen GmbH, Karlsruhe, Germany) with 2.5 mM probenecid (Sigma-Aldrich, Taufkirchen, Germany) and 10 mM HEPES (Sigma-Aldrich, Taufkirchen, Germany). The plates are then washed 2× with HBSS buffer, and HBSS buffer which additionally contains 0.1% BSA (bovine serum albumin; Sigma-Aldrich, Taufkirchen, Germany), 5.6 mM glucose and 0.05% gelatine (Merck KGaA, Darmstadt, Germany) is added. After a further incubation of 20 minutes at room temperature, the plates are inserted into the FLIPR for the Ca^2+ measurement. Alternatively, the plates are washed with buffer A (15 mM HEPES, 80 mM NaCl, 5 mM KCl, 1.2 mM CaCl2, 0.7 mM MgSO4, 2 g/l glucose, 2.5 mM probenecid), buffer A is added and the plates are loaded with 2.5 μM Fluo-4 and 0.025% Pluronic F127 (Sigma-Aldrich, Taufkirchen, Germany). Thereafter, the cells are washed 2× with buffer A and incubated for 30 minutes at room temperature with buffer A, which additionally contains 0.05% BSA and 0.05% gelatine, and thereafter inserted into the FLIPR for the Ca^2+ measurement. The Ca^2+-dependent fluorescence is measured here before and after addition of substances (λex=488 nm, λem=540 nm). Quantification is by measurement of the highest fluorescence intensity (FC, fluorescence counts) over time.
The FLIPR protocol consists of 2 additions of substance. Test substances (10 μM) are first pipetted on to the cells and the Ca^2+ inflow is compared with the control (hB1R: Lys-Des-Arg^9-bradykinin>=50 nM; rB1R: Des-Arg^9-bradykinin 10 μM). This gives the result in % activation based on the Ca^2+ signal after addition of Lys-Des-Arg^9-bradykinin (>=50 nM) or Des-Arg^9-bradykinin (10 μM). After incubation for 10-20 minutes, Lys-Des-Arg^9-bradykinin (hB1R) or Des-Arg^9-bradykinin (rB1R) in the concentration of the EC80 is applied and the inflow of Ca^2+ is likewise determined. Antagonists lead to a suppression of the Ca^2+ inflow. % inhibition compared with the maximum achievable inhibition is calculated.
For determination of the IC50 value, the substances are added in various concentrations. […]

For assay [2], the target named is T2, rat B1R (bradykinin receptor 1) (Rattus norvegicus, UniProt P97583).
T2 construct: expressed in transfected cells; host or cells: CHO K1 cells
T2 sequence (P97583 1-337): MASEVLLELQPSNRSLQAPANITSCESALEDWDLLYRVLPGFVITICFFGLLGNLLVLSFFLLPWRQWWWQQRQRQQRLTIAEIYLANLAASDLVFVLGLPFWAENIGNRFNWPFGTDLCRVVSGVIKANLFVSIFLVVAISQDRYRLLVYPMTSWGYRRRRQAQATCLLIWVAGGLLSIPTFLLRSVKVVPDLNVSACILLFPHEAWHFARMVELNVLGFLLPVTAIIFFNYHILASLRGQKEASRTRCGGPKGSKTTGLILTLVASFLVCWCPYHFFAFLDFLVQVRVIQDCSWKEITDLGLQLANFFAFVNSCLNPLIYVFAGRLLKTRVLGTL
Nature of the assay: FLIPR Ca2+ assay (Fluo-4) on CHO K1 cells stably transfected with the B1R gene of the rat (rB1R cells): % inhibition at 10 μM / IC50, agonist Des-Arg9-bradykinin. The assay is classed as cell-based. The note with it: for inhibition at 10 µM: CHO-K1, rat B1R. An outline of the steps: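 Stably transfected CHO K1 cells loaded with Fluo-4 and read on FLIPR (λex 488, λem 540 nm; peak fluorescence). Test substance (10 μM) added first, then after 10–20 min the agonist at EC80; % inhibition versus maximum achievable inhibition. IC50 from several concentrations, n=2–3, N≥2.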

Consider `CN(C(=O)c1ccccc1Cl)C1CCc2ccc(C(=O)N3CCC4(CCN(c5ccncc5)CC4)C3)cc21` (stereo not shown) [Example H-49, 2-chloro-N-methyl-N-[6-(8-pyridin-4-yl-3,8-diazaspiro[4.5]decane-3-carbonyl)-2,3-dihydro-1H-inden-1-yl]-benzamide], for which, in assay [1] (human B1R, 10 µM), the “% Inhibition (human B1R) at 10 μM” value is recorded as 99%. Also, in assay [2] (rat B1R, 10 µM), the “% Inhibition (rat B1R) at 10 μM” value turned out to be 100%.

In the case of `O=C(NC1CCc2ccc(C(=O)N3CCC4(CCN(c5ccc6cnccc6c5)CC4)C3)cc21)c1ccccc1Cl` (stereo not shown) [Example H-50, 2-chloro-N-[6-(8-isoquinolin-6-yl-3,8-diazaspiro[4.5]decane-3-carbonyl)-2,3-dihydro-1H-inden-1-yl]-benzamide], the inhibition at 10 µM in assay [1] and in assay [2] was 98% in each case.

Consider `O=C(NC1CCc2ccc(C(=O)N3CCC4(CCN(c5ccnc(C(F)(F)F)n5)CC4)C3)cc21)c1ccccc1Cl` (stereo not shown) [Example H-51, 2-chloro-N-[6-[8-[2-(trifluoromethyl)-pyrimidin-4-yl]-3,8-diazaspiro[4.5]decane-3-carbonyl]-2,3-dihydro-1H-inden-1-yl]-benzamide], for which the inhibition at 10 µM was found to be 98% in assay [1] and 96% in assay [2].

For `O=C(N[C@@H]1CCc2ccc(C(=O)N3CCC4(CCC(C(=O)N[C@H]5CN6CCC5CC6)CC4)CC3)cc21)c1ccccc1Cl` [Example H-52, N-[(5R)-1-Azabicyclo[2.2.2]octan-5-yl]-3-[(3R)-3-[(2-chloro-benzoyl)amino]-2,3-dihydro-1H-indene-5-carbonyl]-3-azaspiro[5.5]undecane-9-carboxylic acid amide], the inhibition at 10 µM turned out to be 28% in assay [1] and 46% in assay [2].

`Cc1ccccc1C(=O)N[C@@H]1CCc2ccc(C(=O)N3CCC4(CCN(c5ccncc5)CC4)C3)cc21` [Example H-53, 2-Methyl-N-[(1R)-6-(8-pyridin-4-yl-3,8-diazaspiro[4.5]decane-3-carobnyl)-2,3-dihydro-1H-inden-1-yl]-benzamide]: the inhibition at 10 µM in assay [1] stood at 100%; in assay [2] it was 104%.

Take `O=C(N[C@@H]1CCc2ccc(C(=O)N3CCCC4(CCN(c5ccncc5)CC4)C3)cc21)c1ccccc1Cl` [Example H-54, 2-Chloro-N-[(1R)-6-(9-pyridin-4-yl-2,9-diazaspiro[5.5]undecane-2-carbonyl)-2,3-dihydro-1H-inden-1-yl]-benzamide]: the inhibition at 10 µM in assay [1] turned out to be 98%; in assay [2], 102%.

For `O=C(N[C@@H]1CCc2ccc(C(=O)N3CCC4(CCC(N5CCn6ncnc6C5)CC4)CC3)cc21)c1ccccc1Cl` [Example H-55, 2-Chloro-N-[(1R)-6-[9-(5,6,7,8-tetrahydro-[1,2,4]triazolo[1,5-a]pyrazin-7-yl)-3-azaspiro[5.5]undecane-3-carbonyl]-2,3-dihydro-1H-inden-1-yl]-benzamide], the inhibition at 10 µM in assay [1] was 42%; in assay [2] it was 87%.

Regarding `COc1ccc2cc(C(=O)N[C@@H]3CCc4ccc(C(=O)N5CCC6(CCN(c7ccncc7)CC6)C5)cc43)ccc2c1` [Example H-56, 6-Methoxy-N-[(1R)-6-(8-pyridin-4-yl-3,8-diazaspiro[4.5]decane-3-carbonyl)-2,3-dihydro-1H-inden-1-yl]-naphthalene-2-carboxylic acid amide], the inhibition at 10 µM was determined as 94% in assay [1] and 68% in assay [2].

With `O=C(N[C@@H]1CCOc2ccc(C(=O)N3CCC4(CC3)CCN(c3ccncc3)C4)cc21)c1ccccc1Cl` [Example H-57, 2-Chloro-N-[(4R)-6-(3-pyridin-4-yl-3,8-diazaspiro[4.5]decane-8-carbonyl)-3,4-dihydro-2H-chromen-4-yl]-benzamide], the inhibition at 10 µM is 99% in assay [1] and 105% in assay [2].

As to `O=C(N[C@@H]1CCOc2ccc(C(=O)N3CCC4(CC3)CCN(c3ccncc3)CC4)cc21)c1ccccc1Cl` [Example H-58, 2-Chloro-N-[(4R)-6-(9-pyridin-4-yl-3,9-diazaspiro[5.5]undecane-3-carbonyl)-3,4-dihydro-2H-chromen-4-yl]-benzamide], the results for the inhibition at 10 µM in assay [1] and in assay [2] were 99% and 106%, respectively.

With `Cc1cc2c(cc1C(=O)N1CCC3(CC1)CCN(c1ccncc1)C3)[C@H](NC(=O)c1ccccc1Cl)CC2` [Example H-59, 2-Chloro-N-[(1R)-5-methyl-6-(3-pyridin-4-yl-3,8-diazaspiro[4.5]decane-8-carbonyl)-2,3-dihydro-1H-inden-1-yl]-benzamide], the results for the inhibition at 10 µM in assay [1] and in assay [2] were 99% and 105%, respectively.

As for `COc1ccc(C(=O)N[C@@H]2CCc3ccc(C(=O)N4CCC5(CC4)CCN(c4ccncc4)C5)cc32)c(Cl)c1` [Example H-60, 2-Chloro-4-methoxy-N-[(1R)-6-(3-pyridin-4-yl-3,8-diazaspiro[4.5]decane-8-carbonyl)-2,3-dihydro-1H-inden-1-yl]-benzamide], the figures for the inhibition at 10 µM in assay [1] and in assay [2] were 82% and 101%, respectively.

With `COc1ccc(C(=O)N[C@@H]2CCc3ccc(C(=O)N4CCC5(CCN(c6ccncc6)CC5)C4)cc32)c(C)c1` [Example H-61, 4-Methoxy-2-methyl-N-[(1R)-6-(8-pyridin-4-yl-3,8-diazaspiro[4.5]decane-3-carbonyl)-2,3-dihydro-1H-inden-1-yl]-benzamide], the values for the inhibition at 10 µM in assay [1] and in assay [2] were 100% and 104%, respectively.

With `O=C(N[C@@H]1CCc2ccc(C(=O)N3CCC4(CCC(C(=O)N[C@@H]5CN6CCC5CC6)CC4)CC3)cc21)c1ccccc1Cl` [Example H-62, N-[(5S)-1-Azabicyclo[2.2.2]octan-5-yl]-3-[(3R)-3-[(2-chloro-benzoyl)amino]-2,3-dihydro-1H-indene-5-carbonyl]-3-azaspiro[5.5]undecane-9-carboxylic acid amide], the inhibition at 10 µM in assay [1] is 30%; in assay [2], 102%.
